From PubChem BioAssay (NCI)
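Growth conditions: 96-well plates. Treatment: test compound, 48 hours, 5 concentrations. Analysis: linear interpolation between bracketing concentrations; unreached endpoints set to highest concentration. TGI is the concentration that stops growth completely.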 Where a SMILES comes first, the peptide text is derived from it. [ ]: non-standard residue; d: D form. The star is where a group is joined. mTyr = N[CH](Cc1cccc(O)c1)C(=O)O; Cbz = O=C(OCc1ccccc1)*; OBn = c1ccc(CO*)cc1

Tested on: TK-10 renal
Test: growth of human tumour cells (NCI), 48 h

Work on `COc1ccc(/C=C2\CN(C)C/C(=C\c3ccc(OC)c(OC)c3OC)C2=O)c(OC)c1OC` yielded a TGI of 2.33 µM.

Tested on: SK-OV-3 ovarian
Test: growth of human tumour cells (NCI), 48 h

`COc1cc2c(cc1OC)C1(c3ccc(Cl)cc3)ON=C(c3ccccc3)N1CS2` (configuration not stated) and `COc1ccc(CSc2ccccc2Cn2cccc2)cc1OC` cannot be ordered by TGI: over 100 µM for the first, over 100 µM for the second.

`O=C(Cc1ccccc1)NN1C(=O)C(Cl)C1c1ccccc1O` (configuration not stated) and `Nc1ccc(C(=O)NN2C(=O)C(Cl)C2c2ccccc2)cc1` (configuration not stated) cannot be ordered by TGI: over 100 µM for the first, over 100 µM for the second.

First: CC(C)(C)c1cc(C2COC(c3cc(C(C)(C)C)c(O)c(C(C)(C)C)c3)CO2)cc(C(C)(C)C)c1O (configuration not stated)
Second: COc1ccc(/C=C2\CN(C)C/C(=C\c3ccc(OC)c(OC)c3OC)C2=O)c(OC)c1OC
The TGI of the first is higher: over 100 µM for the first, 1.89 µM for the second.

`Cc1ccc(CC(C)N)cc1` (configuration not stated) and `CC(NC(C)(C)C)C(=O)c1cccc(Cl)c1` (configuration not stated) cannot be ordered by TGI: over 100 µM for the first, over 100 µM for the second.

Compared with `Cc1cc(NCCCCCCCNc2cc(C)nc3cc([N+](=O)[O-])ccc23)c2ccc([N+](=O)[O-])cc2n1`, `Cc1ccc(N=Nc2c(O)c(C(=O)Nc3ccccc3)cc3ccccc23)c([N+](=O)[O-])c1` is higher in TGI: 49.3 µM for the first, over 100 µM for the second.

Compared with `O=C(Nc1cccc(F)c1)c1cc2ccc(O)cc2oc1=Nc1ccccc1F`, `N#C/C(=C\c1c[nH]c2ccccc12)C(=O)c1ccc(O)c(O)c1` is higher in TGI: 15.9 µM for the first, over 100 µM for the second.

`CNc1ccc(N)cc1C(=O)N1CCC[C@H]1CO` and `COc1cc(/C=C(/C#N)C(N)=O)ccc1O` cannot be ordered by TGI: over 100 µM for the first, over 100 µM for the second.

`CCC1(COC(NC(=O)c2ccccc2)(C(F)(F)F)C(F)(F)F)COC1` and `COC(=O)c1cnn2c1n[n+]([O-])c1ccccc12` cannot be ordered by TGI: over 100 µM for the first, over 100 µM for the second.

Compared with `CCCc1ccc(NCc2cc(OC)c(OC)c(OC)c2)cc1`, `O=C1NC(=S)N(c2ccccc2)C1=O` is higher in TGI: 66.3 µM for the first, over 100 µM for the second.

Tested on: MCF7 breast
Test: growth of human tumour cells (NCI), 48 h

Compared with `CC(C)(C)c1cc(C2COC(c3cc(C(C)(C)C)c(O)c(C(C)(C)C)c3)CO2)cc(C(C)(C)C)c1O` (configuration not stated), `O=C(Nc1cccc(F)c1)c1cc2ccc(O)cc2oc1=Nc1ccccc1F` is lower in TGI: over 100 µM for the first, 25.7 µM for the second.

`CNc1ccc(N)cc1C(=O)N1CCC[C@H]1CO` and `COc1cc(/C=C(/C#N)C(N)=O)ccc1O` cannot be ordered by TGI: over 100 µM for the first, over 100 µM for the second.

`COC(=O)c1cnn2c1n[n+]([O-])c1ccccc12` and `COc1ccc(CSc2ccccc2Cn2cccc2)cc1OC` cannot be ordered by TGI: over 100 µM for the first, over 100 µM for the second.

`COC(=O)C(Cc1cccc(O)c1)NC(=O)C(CC(=O)OCc1ccccc1)NC(=O)OCc1ccccc1` (configuration not stated) (Cbz-Asp(OBn)-[mTyr]-OMe; configuration not given here) and `N#C/C(=C\c1c[nH]c2ccccc12)C(=O)c1ccc(O)c(O)c1` cannot be ordered by TGI: over 100 µM for the first, over 100 µM for the second.

Tested on: U251 CNS
Test: growth of human tumour cells (NCI), 48 h

`COc1cc2c(cc1OC)C1(c3ccc(Cl)cc3)ON=C(c3ccccc3)N1CS2` (configuration not stated) and `COc1ccc(CSc2ccccc2Cn2cccc2)cc1OC` cannot be ordered by TGI: over 100 µM for the first, over 100 µM for the second.

`O=C(Cc1ccccc1)NN1C(=O)C(Cl)C1c1ccccc1O` (configuration not stated) and `Nc1ccc(C(=O)NN2C(=O)C(Cl)C2c2ccccc2)cc1` (configuration not stated) cannot be ordered by TGI: over 100 µM for the first, over 100 µM for the second.

First: CC(C)(C)c1cc(C2COC(c3cc(C(C)(C)C)c(O)c(C(C)(C)C)c3)CO2)cc(C(C)(C)C)c1O (configuration not stated)
Second: COc1ccc(/C=C2\CN(C)C/C(=C\c3ccc(OC)c(OC)c3OC)C2=O)c(OC)c1OC
The TGI of the first is higher: over 100 µM for the first, 0.177 µM for the second.

`Cc1ccc(CC(C)N)cc1` (configuration not stated) and `CC(NC(C)(C)C)C(=O)c1cccc(Cl)c1` (configuration not stated) cannot be ordered by TGI: over 100 µM for the first, over 100 µM for the second.

First: Cc1cc(NCCCCCCCNc2cc(C)nc3cc([N+](=O)[O-])ccc23)c2ccc([N+](=O)[O-])cc2n1
Second: Cc1ccc(N=Nc2c(O)c(C(=O)Nc3ccccc3)cc3ccccc23)c([N+](=O)[O-])c1
The TGI of the first is lower: 27.4 µM for the first, over 100 µM for the second.

First: O=C(Nc1cccc(F)c1)c1cc2ccc(O)cc2oc1=Nc1ccccc1F
Second: COC(=O)C(Cc1cccc(O)c1)NC(=O)C(CC(=O)OCc1ccccc1)NC(=O)OCc1ccccc1 (configuration not stated) (Cbz-Asp(OBn)-[mTyr]-OMe; configuration not given here)
The TGI of the first is lower: 13.4 µM for the first, over 100 µM for the second.

`CNc1ccc(N)cc1C(=O)N1CCC[C@H]1CO` and `COc1cc(/C=C(/C#N)C(N)=O)ccc1O` cannot be ordered by TGI: over 100 µM for the first, over 100 µM for the second.

`CCC1(COC(NC(=O)c2ccccc2)(C(F)(F)F)C(F)(F)F)COC1` and `COC(=O)c1cnn2c1n[n+]([O-])c1ccccc12` cannot be ordered by TGI: over 100 µM for the first, over 100 µM for the second.

`N#C/C(=C\c1c[nH]c2ccccc12)C(=O)c1ccc(O)c(O)c1` and `O=C1NC(=S)N(c2ccccc2)C1=O` cannot be ordered by TGI: over 100 µM for the first, over 100 µM for the second.

Work on `CCCc1ccc(NCc2cc(OC)c(OC)c(OC)c2)cc1` yielded a TGI of 81.9 µM.

Tested on: SK-MEL-5 melanoma
Test: growth of human tumour cells (NCI), 48 h

`COc1cc2c(cc1OC)C1(c3ccc(Cl)cc3)ON=C(c3ccccc3)N1CS2` (configuration not stated) and `COc1ccc(CSc2ccccc2Cn2cccc2)cc1OC` cannot be ordered by TGI: over 100 µM for the first, over 100 µM for the second.

First: CC(C)(C)c1cc(C2COC(c3cc(C(C)(C)C)c(O)c(C(C)(C)C)c3)CO2)cc(C(C)(C)C)c1O (configuration not stated)
Second: COc1ccc(/C=C2\CN(C)C/C(=C\c3ccc(OC)c(OC)c3OC)C2=O)c(OC)c1OC
The TGI of the first is higher: over 100 µM for the first, 0.705 µM for the second.

`Cc1ccc(CC(C)N)cc1` (configuration not stated) and `CC(NC(C)(C)C)C(=O)c1cccc(Cl)c1` (configuration not stated) cannot be ordered by TGI: over 100 µM for the first, over 100 µM for the second.

Going from `Cc1cc(NCCCCCCCNc2cc(C)nc3cc([N+](=O)[O-])ccc23)c2ccc([N+](=O)[O-])cc2n1` to `Cc1ccc(N=Nc2c(O)c(C(=O)Nc3ccccc3)cc3ccccc23)c([N+](=O)[O-])c1`, the TGI rises from 29.9 µM to over 100 µM.

Going from `O=C(Nc1cccc(F)c1)c1cc2ccc(O)cc2oc1=Nc1ccccc1F` to `Nc1ccc(C(=O)NN2C(=O)C(Cl)C2c2ccccc2)cc1` (configuration not stated), the TGI rises from 9.57 µM to over 100 µM.

`CNc1ccc(N)cc1C(=O)N1CCC[C@H]1CO` and `COc1cc(/C=C(/C#N)C(N)=O)ccc1O` cannot be ordered by TGI: over 100 µM for the first, over 100 µM for the second.

`CCC1(COC(NC(=O)c2ccccc2)(C(F)(F)F)C(F)(F)F)COC1` and `COC(=O)c1cnn2c1n[n+]([O-])c1ccccc12` cannot be ordered by TGI: over 100 µM for the first, over 100 µM for the second.

`COC(=O)C(Cc1cccc(O)c1)NC(=O)C(CC(=O)OCc1ccccc1)NC(=O)OCc1ccccc1` (configuration not stated) (Cbz-Asp(OBn)-[mTyr]-OMe; configuration not given here) and `N#C/C(=C\c1c[nH]c2ccccc12)C(=O)c1ccc(O)c(O)c1` cannot be ordered by TGI: over 100 µM for the first, over 100 µM for the second.

First: CCCc1ccc(NCc2cc(OC)c(OC)c(OC)c2)cc1
Second: O=C1NC(=S)N(c2ccccc2)C1=O
The TGI of the first is lower: 32.5 µM for the first, over 100 µM for the second.

Tested on: 786-0 renal
Test: growth of human tumour cells (NCI), 48 h

`COc1cc2c(cc1OC)C1(c3ccc(Cl)cc3)ON=C(c3ccccc3)N1CS2` (configuration not stated) and `COc1ccc(CSc2ccccc2Cn2cccc2)cc1OC` cannot be ordered by TGI: over 100 µM for the first, over 100 µM for the second.

`O=C(Cc1ccccc1)NN1C(=O)C(Cl)C1c1ccccc1O` (configuration not stated) and `Nc1ccc(C(=O)NN2C(=O)C(Cl)C2c2ccccc2)cc1` (configuration not stated) cannot be ordered by TGI: over 100 µM for the first, over 100 µM for the second.

Going from `CC(C)(C)c1cc(C2COC(c3cc(C(C)(C)C)c(O)c(C(C)(C)C)c3)CO2)cc(C(C)(C)C)c1O` (configuration not stated) to `COc1ccc(/C=C2\CN(C)C/C(=C\c3ccc(OC)c(OC)c3OC)C2=O)c(OC)c1OC`, the TGI falls from over 100 µM to 0.806 µM.

`Cc1ccc(CC(C)N)cc1` (configuration not stated) and `CC(NC(C)(C)C)C(=O)c1cccc(Cl)c1` (configuration not stated) cannot be ordered by TGI: over 100 µM for the first, over 100 µM for the second.

Compared with `Cc1cc(NCCCCCCCNc2cc(C)nc3cc([N+](=O)[O-])ccc23)c2ccc([N+](=O)[O-])cc2n1`, `Cc1ccc(N=Nc2c(O)c(C(=O)Nc3ccccc3)cc3ccccc23)c([N+](=O)[O-])c1` is higher in TGI: 39.3 µM for the first, over 100 µM for the second.

Going from `O=C(Nc1cccc(F)c1)c1cc2ccc(O)cc2oc1=Nc1ccccc1F` to `COC(=O)C(Cc1cccc(O)c1)NC(=O)C(CC(=O)OCc1ccccc1)NC(=O)OCc1ccccc1` (configuration not stated) (Cbz-Asp(OBn)-[mTyr]-OMe; configuration not given here), the TGI rises from 17.1 µM to over 100 µM.

`CNc1ccc(N)cc1C(=O)N1CCC[C@H]1CO` and `COC(=O)c1cnn2c1n[n+]([O-])c1ccccc12` cannot be ordered by TGI: over 100 µM for the first, over 100 µM for the second.

`CCC1(COC(NC(=O)c2ccccc2)(C(F)(F)F)C(F)(F)F)COC1` and `O=C1NC(=S)N(c2ccccc2)C1=O` cannot be ordered by TGI: over 100 µM for the first, over 100 µM for the second.

First: N#C/C(=C\c1c[nH]c2ccccc12)C(=O)c1ccc(O)c(O)c1
Second: CCCc1ccc(NCc2cc(OC)c(OC)c(OC)c2)cc1
The TGI of the first is higher: over 62 µM for the first, 50.3 µM for the second.
